Measured values taken from US11571407B2, “Bicalutamide analogs or (S)-bicalutamide as exocytosis activating compounds for use in the treatment of a lysosomal storage disorder or glycogenosis” (BCN PEPTIDES, S.A., priority 2013, dated 2023).
Marks after values point to notes of the source that are not given here.

What was measured:
[1] = system: fibroblasts from patients affected by different lysosomal storage diseases; test: Determination of lysosomal exocytosis (β-hexosaminidase activity in the culture medium); assay type: cell-based, human; conditions: for Increase in exocytosis (%), Median: Table 4 median over the patients' fibroblasts; for Increase in exocytosis (%), Median / Increase in exocytosis (%): 72 h; for cell cultures with significantly increased lysosomal exocytosis: thirteen patient fibroblast cultures, 50 and 100 μM, 72 hours
Description: Fibroblasts from thirteen patients affected by seven different lysosomal storage diseases (Fabry, Gaucher, Hurler, Niemann-Pick type A/B, Sanfilippo A, Sanfilippo B and Tay-Sachs) were cultured in DMEM (Dulbecco's modified Eagles medium) with 10% fetal bovine serum and in the presence of antibiotics (penicillin and streptomycin), at 37° C. with 5% CO2. All reagents were purchased from PAA Laboratories (Velizy-Villacoublay, France). The fibroblasts of the patients were selected on the basis of availability of fibroblasts and measurable residual activity. The use of human samples was approved by the Ethical Committee of Hospital Clinic, Barcelona
Fibroblasts cultured for 72 h in 24 well-plates in the presence or absence of bicalutamide, (S)-bicalutamide, (S)-bicalutamide analogs or (R)-bicalutamide at different concentrations in triplicate (10 nmol/L, 100 nmol/L, 1 μmol/L, 10 μmol/L, 50 μmol/L and 100 μmol/L), were rinsed with physiological saline. The cells were lysed by using 3 freeze-thaw cycles. Then protein concentration was determined by using the Lowry method. Protein lysates (10 μg) were seeded in 96-well plates and the enzymatic activity of the enzyme involved in each disease was determined in triplicate by means of fluorimetric artificial substrates: 4-methylumbelliferyl-α-N-sulphoglucosaminide for Sanfilippo A, 4-methylumbelliferyl-2-acetamido-2 deoxy-α-D-glucopyranoside for Sanfilippo B, 4-methylumbelliferyl-α-L-iduronide for Hurler, 4-methylumbelliferyl-N-acetyl-β-D-glucosaminide for Tay-sachs, 4-methylumbelliferyl-β-D-glucopyranoside for Gaucher, 4-methylumbelliferyl-α-Galactopiranosid for Fabry disease, and 6-hexadecanoylamino-4-methylumbelliferyl-P-colline for Niemann-Pick type AB. The activity of the enzyme β-hexosaminidase was assayed by using 4-methylumbelliferyl-2 acetamido-2 deoxy-β-D-glucopyranoside as artificial substrate [Annunziata et al., Study of influence of sex and age on human serum lysosomal enzymes by using 4-methylumbelliferyl substrates. Clin. Chim. Acta.
Lysosomal exocytosis was monitorized by measuring the enzymatic activity of the lysosomal enzyme β-hexosaminidase in the culture medium [Xu M, et al, δ-Tocopherol reduces lipid accumulation in Niemann-Pick type C1 and Wolman cholesterol storage disorders. […] The fibroblasts were previously treated with different concentrations of bicalutamide, (S)-bicalutamide or (R)-bicalutamide (10 nmol/L, 100 nmol/L, 1 μmol/L, 10 μmol/L, 50 μmol/L and 100 μmol/L) in triplicate in 24-well plates. At 0, 24, 48 and 72 hours, 30 μL of culture medium was aliquoted for the subsequent β-hexosaminidase activity assay.
Fibroblasts from two patients affected by Sanfilippo B and Hurler diseases were treated with different concentrations of bicalutamide (racemic mixture at increasing concentrations of 0.01, 0.1, 1, 10 and 100 μM). And the increase in lysosomal exocytosis was determined by analyzing the enzymatic activity of the lysosomal enzyme β-hexosaminidase in the culture medium.
Fibroblasts from thirteen patients affected by different lysosomal storage diseases (four Sanfilippo B disease patients with different genotypes, three Sanfilippo A disease patients with different genotypes, two Tay-Sachs disease patients with the same genotype, one Gaucher disease patient, one Niemann-pick type A/B disease patient, one Hurler disease patient, and one Fabry disease patient) were independently treated with different concentrations of (R)- and (S)-bicalutamide (50 and 100 μM) for 72 hours.

[2] = cited from earlier work
[3] = Table 4 patient 1, Sanfilippo B fibroblasts, 50 μM
[4] = Table 4 patient 1, Sanfilippo B fibroblasts, 100 μM
[5] = Table 4 patient 2, Sanfilippo B fibroblasts, 50 μM
[6] = Table 4 patient 2, Sanfilippo B fibroblasts, 100 μM
[7] = Table 4 patient 3, Sanfilippo B fibroblasts, 50 μM
[8] = Table 4 patient 3, Sanfilippo B fibroblasts, 100 μM
[9] = Table 4 patient 4, Sanfilippo B fibroblasts, 50 μM
[10] = Table 4 patient 4, Sanfilippo B fibroblasts, 100 μM
[11] = Table 4 patient 5, Sanfilippo A fibroblasts, 50 μM
[12] = Table 4 patient 5, Sanfilippo A fibroblasts, 100 μM
[13] = Table 4 patient 6, Sanfilippo A fibroblasts, 50 μM
[14] = Table 4 patient 6, Sanfilippo A fibroblasts, 100 μM
[15] = Table 4 patient 7, Sanfilippo A fibroblasts, 50 μM
[16] = Table 4 patient 7, Sanfilippo A fibroblasts, 100 μM
[17] = Table 4 patient 8, Tay-Sachs fibroblasts, 50 μM
[18] = Table 4 patient 8, Tay-Sachs fibroblasts, 100 μM
[19] = Table 4 patient 9, Tay-Sachs fibroblasts, 50 μM
[20] = Table 4 patient 9, Tay-Sachs fibroblasts, 100 μM
[21] = Table 4 patient 10, Gaucher fibroblasts, 50 μM
[22] = Table 4 patient 10, Gaucher fibroblasts, 100 μM
[23] = Table 4 patient 11, Niemann-Pick AB fibroblasts, 50 μM
[24] = Table 4 patient 11, Niemann-Pick AB fibroblasts, 100 μM
[25] = Table 4 patient 12, Hurler fibroblasts, 50 μM
[26] = Table 4 patient 12, Hurler fibroblasts, 100 μM
[27] = Table 4 patient 13, Fabry fibroblasts, 50 μM
[28] = Table 4 patient 13, Fabry fibroblasts, 100 μM

Compound	Increase in exocytosis (%), Median ([1]; 50 μM)	Increase in exocytosis (%), Median ([1]; 100 μM)	Increase in exocytosis (%) [1, 3]	Increase in exocytosis (%) [1, 4]	Increase in exocytosis (%) [1, 5]	Increase in exocytosis (%) [1, 6]	Increase in exocytosis (%) [1, 7]	Increase in exocytosis (%) [1, 8]	Increase in exocytosis (%) [1, 9]	Increase in exocytosis (%) [1, 10]	Increase in exocytosis (%) [1, 11]	Increase in exocytosis (%) [1, 12]	Increase in exocytosis (%) [1, 13]	Increase in exocytosis (%) [1, 14]	Increase in exocytosis (%) [1, 15]	Increase in exocytosis (%) [1, 16]	Increase in exocytosis (%) [1, 17]	Increase in exocytosis (%) [1, 18]	Increase in exocytosis (%) [1, 19]	Increase in exocytosis (%) [1, 20]	other results
C[C@@](O)(CS(=O)(=O)c1ccc(F)cc1)C(=O)Nc1ccc(C#N)c(C(F)(F)F)c1 [(S)-BICALUTAMIDE (1), (2S)-N-[4-cyano-3-(trifluoromethyl)phenyl]-3-[(4-fluorophenyl)sulfonyl]-2-hydroxy-2-methylpropanamide]	114* %	124* %	N.S.	N.S.	N.S.	166* %	N.S.	N.S.	33* %	28* %	72* %	39* %	70* %	64* %	121* %	109* %	N.S.	127* %	N.S.	124* %	Increase in exocytosis (%) [1, 21]: N.S.; Increase in exocytosis (%) [1, 22]: N.S.; Increase in exocytosis (%) [1, 23]: 114* %; Increase in exocytosis (%) [1, 24]: 60* %; Increase in exocytosis (%) [1, 25]: 13629* %; Increase in exocytosis (%) [1, 26]: 5949* %; Increase in exocytosis (%) [1, 27]: 5402* %; Increase in exocytosis (%) [1, 28]: 3432* %; cell cultures with significantly increased lysosomal exocytosis [1]: ten of the thirteen
C[C@@](O)(CS(=O)(=O)c1ccc(F)cc1)C(=O)Nc1ccc(C#N)c(C(F)(F)F)c1 (single isomer, unassigned) [(R)-BICALUTAMIDE (2)]	0%	0%	0%	257* %	N.S.	N.S.	N.S.	N.S.	N.S.	0%	0%	0%	N.S.	N.S.	N.S.	0%	N.S.	0%	N.S.	0%	Increase in exocytosis (%) [1, 21]: N.S.; Increase in exocytosis (%) [1, 22]: 0%; Increase in exocytosis (%) [1, 23]: N.S.; Increase in exocytosis (%) [1, 24]: 0%; Increase in exocytosis (%) [1, 25]: N.S.; Increase in exocytosis (%) [1, 26]: N.S.; Increase in exocytosis (%) [1, 27]: N.S.; Increase in exocytosis (%) [1, 28]: 0%; cell cultures with significantly increased lysosomal exocytosis [1]: one of the tested cell cultures; half life in plasma ([2]; in vivo): 1 week; concentrations in plasma at the steady state relative to (S)-bicalutamide ([2]; steady state, (R)- versus (S)-bicalutamide): 100 times
